Holding throughout (test): NanoBRET CELLinib128
Assay type in all cases: binding
On the technique in general: BRET reads energy transfer from a luciferase to a nearby fluorophore.

The target of assay [1] is T1, ERN1 (Homo sapiens, UniProt O75460).
T1 construct: Full-length kinase ORF (Promega, Madison, WI, USA) cloned in frame with a NanoLuc-vector was transfected into HEK293T cells; host or cells: HEK293T
The settings on record: 100% no effect, 0% complete tracer displacement, read-out: Tracer bound. As to the method: (§1) To get an impression about the binding strength of the PROTAC MA191 and the reference inhibitor MA68 to other kinases besides FLT3-ITD the binding on a kinase panel of further 128 representative protein kinases at 1 μM concentration was tested using the NanoBRET^TM cellular target engagement assay (CELLinib128 assay, CELLinib GmbH, Frankfurt, Germany). […] In none of the 128 kinases MA191 was able to displace the tracer (inhibitor) used by more than 50%, Table S1, Supplementary Information).
(§2) The CELLinib128 assay was performed by CELLinib GmbH, Frankfurt (Germany) as described previously. In brief: Full-length kinase ORF (Promega, Madison, WI, USA) cloned in frame with a NanoLuc-vector was transfected into HEK293T cells in Opti-MEM without phenol red (Life Technologies, Carlsbad, CA, USA) at a density of 2 × 10^5 cells/mL using FuGENE HD (Promega, E2312) and proteins were allowed to express for 20 h. For CDKs, where indicated below, an excess of an activator without an NLuc-fusion was cotransfected. […] The system was allowed to equilibrate at 37 °C for 2 h and 5% CO2 prior to BRET measurements. For PKCs, a chemical activator PMA was added in a final concentration of 1 µM was added together with test compounds and tracers (Promega, V1171). To measure BRET, NanoBRET^TM NanoGlo substrate + extracellular NanoLuc inhibitor (Promega, N2160) were added as per the manufacturer’s protocol, and filtered luminescence was measured (450 nm BP filter (donor) and 610 nm LP filter (acceptor)). For the 1-shot test compounds, data were normalized to the tracer control and the background control or control compound plateau and an average and SD were calculated. […] For the control compounds competitive displacement data were normalized to the tracer Ctrl and the background Ctrl and then plotted and fitted using GraphPad Prism 10 software using a normalized 3-parameter curve fit with the following equation: Y = 100/(1 + 10^X−LogIC50).

In assay [2] the target is T2, MAPK9 (Homo sapiens, UniProt P45984).
T2 construct: Full-length kinase ORF (Promega, Madison, WI, USA) cloned in frame with a NanoLuc-vector was transfected into HEK293T cells; host or cells: HEK293T
The note with it: 1 µM; 100% no effect, 0% complete tracer displacement. The procedure: as §1, §2

Assay [3] has as its target T3, ERN2 (Homo sapiens, UniProt Q76MJ5).
T3 construct: Full-length kinase ORF (Promega, Madison, WI, USA) cloned in frame with a NanoLuc-vector was transfected into HEK293T cells; host or cells: HEK293T
The note with it: 100% no effect, 0% complete tracer displacement, read-out: Tracer bound. The procedure:
as §1, §2

The target in assay [4] is T4, MAP3K11 (Homo sapiens, UniProt Q16584).
T4 construct: Full-length kinase ORF (Promega, Madison, WI, USA) cloned in frame with a NanoLuc-vector was transfected into HEK293T cells; host or cells: HEK293T
T4 sequence (Q16584 whole entry): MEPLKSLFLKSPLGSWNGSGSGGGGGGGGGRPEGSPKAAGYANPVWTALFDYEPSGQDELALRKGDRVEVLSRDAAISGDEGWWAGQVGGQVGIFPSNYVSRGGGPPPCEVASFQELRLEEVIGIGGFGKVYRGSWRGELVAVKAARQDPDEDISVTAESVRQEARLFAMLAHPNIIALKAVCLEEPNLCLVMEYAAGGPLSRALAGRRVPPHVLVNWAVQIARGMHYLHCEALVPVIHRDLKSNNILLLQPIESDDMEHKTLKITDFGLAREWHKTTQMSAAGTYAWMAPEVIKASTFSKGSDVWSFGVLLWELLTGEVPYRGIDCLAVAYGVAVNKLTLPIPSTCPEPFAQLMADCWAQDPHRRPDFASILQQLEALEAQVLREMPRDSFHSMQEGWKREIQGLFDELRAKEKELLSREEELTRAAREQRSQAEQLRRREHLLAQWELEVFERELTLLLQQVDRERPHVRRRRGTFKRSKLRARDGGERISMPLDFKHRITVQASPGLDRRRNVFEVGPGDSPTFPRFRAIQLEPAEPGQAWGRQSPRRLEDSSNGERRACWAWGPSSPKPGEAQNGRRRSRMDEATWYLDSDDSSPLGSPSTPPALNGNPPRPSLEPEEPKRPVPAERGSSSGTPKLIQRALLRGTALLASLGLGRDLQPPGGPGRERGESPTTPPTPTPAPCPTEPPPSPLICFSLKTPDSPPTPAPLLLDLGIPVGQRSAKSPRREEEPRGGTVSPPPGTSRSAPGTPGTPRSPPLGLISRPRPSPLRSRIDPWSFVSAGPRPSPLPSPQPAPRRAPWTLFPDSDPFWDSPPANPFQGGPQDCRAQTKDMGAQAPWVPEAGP
The settings on record: 1 µM; 100% no effect, 0% complete tracer displacement. The procedure: as §1, §2

The target of assay [5] is T5, RPS6KA1 (Homo sapiens, UniProt Q15418).
T5 construct: Full-length kinase ORF (Promega, Madison, WI, USA) cloned in frame with a NanoLuc-vector was transfected into HEK293T cells; host or cells: HEK293T
The note with it: 100% no effect, 0% complete tracer displacement, read-out: Tracer bound. The procedure:
as §1, §2

For assay [6], the target named is T6, MAP4K3 (Homo sapiens, UniProt Q8IVH8).
T6 construct: Full-length kinase ORF (Promega, Madison, WI, USA) cloned in frame with a NanoLuc-vector was transfected into HEK293T cells; host or cells: HEK293T
The settings on record: 1 µM; 100% no effect, 0% complete tracer displacement. The procedure:
as §1, §2

Assay [7] concerns the target T7, MAP4K2 (Homo sapiens, UniProt Q12851).
T7 construct: Full-length kinase ORF (Promega, Madison, WI, USA) cloned in frame with a NanoLuc-vector was transfected into HEK293T cells; host or cells: HEK293T
The note with it: 100% no effect, 0% complete tracer displacement, read-out: Tracer bound. The procedure: as §1, §2

Assay [8] deals with T8, ULK3v1 (Homo sapiens, UniProt Q6PHR2).
T8 construct: Full-length kinase ORF (Promega, Madison, WI, USA) cloned in frame with a NanoLuc-vector; host or cells: HEK293T
The note with it: 1 µM; 100% no effect, 0% complete tracer displacement. The procedure:
as §1, §2

The target of assay [9] is T9, SIK1 (Homo sapiens, UniProt P57059).
T9 construct: Full-length kinase ORF (Promega, Madison, WI, USA) cloned in frame with a NanoLuc-vector was transfected into HEK293T cells; host or cells: HEK293T
The note with it: 1 µM; 100% no effect, 0% complete tracer displacement. The procedure: as §1, §2

The target in assay [10] is T10, MLTK (Homo sapiens, UniProt Q9NYL2).
T10 construct: Full-length kinase ORF (Promega, Madison, WI, USA) cloned in frame with a NanoLuc-vector was transfected into HEK293T cells; host or cells: HEK293T
T10 sequence (Q9NYL2 whole entry): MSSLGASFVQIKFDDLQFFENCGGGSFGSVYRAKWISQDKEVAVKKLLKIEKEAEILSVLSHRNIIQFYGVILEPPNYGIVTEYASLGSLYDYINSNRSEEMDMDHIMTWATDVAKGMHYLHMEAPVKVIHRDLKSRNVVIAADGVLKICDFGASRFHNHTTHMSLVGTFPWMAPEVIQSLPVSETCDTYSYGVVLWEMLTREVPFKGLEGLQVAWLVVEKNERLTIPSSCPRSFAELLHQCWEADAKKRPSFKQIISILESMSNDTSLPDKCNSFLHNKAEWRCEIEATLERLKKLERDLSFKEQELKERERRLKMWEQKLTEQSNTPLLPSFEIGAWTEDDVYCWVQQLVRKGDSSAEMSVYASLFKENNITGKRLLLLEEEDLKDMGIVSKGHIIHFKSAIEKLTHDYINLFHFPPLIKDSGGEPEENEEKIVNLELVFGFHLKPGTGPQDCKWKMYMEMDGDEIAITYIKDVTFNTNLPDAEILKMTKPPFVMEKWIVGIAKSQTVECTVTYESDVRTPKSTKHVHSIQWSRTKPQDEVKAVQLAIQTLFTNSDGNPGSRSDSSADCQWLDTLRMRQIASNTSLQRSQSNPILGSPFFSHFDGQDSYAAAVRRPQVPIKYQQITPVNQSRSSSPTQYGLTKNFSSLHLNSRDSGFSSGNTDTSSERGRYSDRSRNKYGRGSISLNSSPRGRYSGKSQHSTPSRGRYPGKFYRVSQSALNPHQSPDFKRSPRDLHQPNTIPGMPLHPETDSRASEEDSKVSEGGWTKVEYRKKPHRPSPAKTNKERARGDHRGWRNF
The settings on record: 100% no effect, 0% complete tracer displacement, read-out: Tracer bound. The procedure:
as §1, §2

In assay [11] the target is T11, MYLK3 (Homo sapiens, UniProt Q32MK0).
T11 construct: Full-length kinase ORF (Promega, Madison, WI, USA) cloned in frame with a NanoLuc-vector was transfected into HEK293T cells; host or cells: HEK293T
The note with it: 100% no effect, 0% complete tracer displacement, read-out: Tracer bound. As to the method: as §1, §2

The target of assay [12] is T12, RPS6KA6 (Homo sapiens, UniProt Q9UK32).
T12 construct: Full-length kinase ORF (Promega, Madison, WI, USA) cloned in frame with a NanoLuc-vector was transfected into HEK293T cells; host or cells: HEK293T
T12 sequence (Q9UK32 whole entry): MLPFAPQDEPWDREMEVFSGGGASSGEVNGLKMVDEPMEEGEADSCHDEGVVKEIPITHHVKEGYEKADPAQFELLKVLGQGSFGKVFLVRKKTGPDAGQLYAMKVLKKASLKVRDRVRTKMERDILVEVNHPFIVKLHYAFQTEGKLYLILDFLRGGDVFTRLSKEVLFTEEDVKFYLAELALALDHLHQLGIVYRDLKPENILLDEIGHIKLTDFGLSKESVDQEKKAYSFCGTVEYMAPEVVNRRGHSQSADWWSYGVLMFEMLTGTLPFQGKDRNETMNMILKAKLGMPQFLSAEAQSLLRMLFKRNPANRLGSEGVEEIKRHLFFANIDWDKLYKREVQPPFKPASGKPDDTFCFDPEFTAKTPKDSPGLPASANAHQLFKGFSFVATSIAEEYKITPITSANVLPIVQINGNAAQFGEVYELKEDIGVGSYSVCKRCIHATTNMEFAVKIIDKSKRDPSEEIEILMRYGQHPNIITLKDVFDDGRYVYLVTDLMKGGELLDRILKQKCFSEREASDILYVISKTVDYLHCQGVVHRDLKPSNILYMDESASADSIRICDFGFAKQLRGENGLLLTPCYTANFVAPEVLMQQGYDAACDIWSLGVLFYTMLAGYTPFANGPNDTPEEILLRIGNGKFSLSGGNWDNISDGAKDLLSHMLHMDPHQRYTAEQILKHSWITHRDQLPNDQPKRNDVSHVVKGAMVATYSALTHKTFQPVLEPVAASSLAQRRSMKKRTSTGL
The settings on record: 1 µM; 100% no effect, 0% complete tracer displacement. The procedure:
as §1, §2

The target of assay [13] is T13, CDK17-CCNY (Homo sapiens, UniProt Q00537).
T13 construct: Full-length kinase ORF (Promega, Madison, WI, USA) cloned in frame with a NanoLuc-vector was transfected into HEK293T cells; host or cells: HEK293T
The settings on record: 100% no effect, 0% complete tracer displacement, read-out: Tracer bound. As to the method:
as §1, §2

Assay [14] addresses T14, JAK3 (Homo sapiens, UniProt P52333).
T14 construct: Full-length kinase ORF (Promega, Madison, WI, USA) cloned in frame with a NanoLuc-vector was transfected into HEK293T cells; host or cells: HEK293T
The settings on record: 100% no effect, 0% complete tracer displacement, read-out: Tracer bound. The procedure: as §1, §2

Assay [15] has as its target T15, NEK9 (Homo sapiens, UniProt Q8TD19).
T15 construct: Full-length kinase ORF (Promega, Madison, WI, USA) cloned in frame with a NanoLuc-vector was transfected into HEK293T cells; host or cells: HEK293T
The settings on record: 100% no effect, 0% complete tracer displacement, read-out: Tracer bound. As to the method:
as §1, §2

T3 sequence (Q76MJ5 35-926): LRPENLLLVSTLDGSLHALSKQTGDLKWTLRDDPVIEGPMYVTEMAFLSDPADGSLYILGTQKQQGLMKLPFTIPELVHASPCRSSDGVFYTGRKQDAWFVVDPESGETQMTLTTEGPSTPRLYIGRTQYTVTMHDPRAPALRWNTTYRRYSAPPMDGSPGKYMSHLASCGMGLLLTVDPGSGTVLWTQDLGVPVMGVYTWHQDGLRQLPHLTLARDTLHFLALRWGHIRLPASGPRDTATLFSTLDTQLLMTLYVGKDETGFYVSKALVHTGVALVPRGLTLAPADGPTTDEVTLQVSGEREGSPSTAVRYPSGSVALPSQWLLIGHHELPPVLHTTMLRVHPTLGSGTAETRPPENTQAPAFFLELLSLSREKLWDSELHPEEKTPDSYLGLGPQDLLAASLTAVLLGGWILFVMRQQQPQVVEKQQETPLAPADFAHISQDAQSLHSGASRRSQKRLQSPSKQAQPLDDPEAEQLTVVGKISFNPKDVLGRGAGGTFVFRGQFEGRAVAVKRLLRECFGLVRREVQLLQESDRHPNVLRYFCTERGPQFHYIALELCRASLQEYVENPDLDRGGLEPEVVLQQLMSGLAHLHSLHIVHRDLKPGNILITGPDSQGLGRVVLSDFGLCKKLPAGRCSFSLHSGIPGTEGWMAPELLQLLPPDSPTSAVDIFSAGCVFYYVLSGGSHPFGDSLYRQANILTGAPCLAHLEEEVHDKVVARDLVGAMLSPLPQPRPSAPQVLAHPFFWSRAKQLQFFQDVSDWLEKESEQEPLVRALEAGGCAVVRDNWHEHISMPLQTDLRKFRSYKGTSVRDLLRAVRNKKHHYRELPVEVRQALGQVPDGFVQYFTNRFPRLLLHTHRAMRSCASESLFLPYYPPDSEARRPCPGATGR
T7 sequence (Q12851 whole entry): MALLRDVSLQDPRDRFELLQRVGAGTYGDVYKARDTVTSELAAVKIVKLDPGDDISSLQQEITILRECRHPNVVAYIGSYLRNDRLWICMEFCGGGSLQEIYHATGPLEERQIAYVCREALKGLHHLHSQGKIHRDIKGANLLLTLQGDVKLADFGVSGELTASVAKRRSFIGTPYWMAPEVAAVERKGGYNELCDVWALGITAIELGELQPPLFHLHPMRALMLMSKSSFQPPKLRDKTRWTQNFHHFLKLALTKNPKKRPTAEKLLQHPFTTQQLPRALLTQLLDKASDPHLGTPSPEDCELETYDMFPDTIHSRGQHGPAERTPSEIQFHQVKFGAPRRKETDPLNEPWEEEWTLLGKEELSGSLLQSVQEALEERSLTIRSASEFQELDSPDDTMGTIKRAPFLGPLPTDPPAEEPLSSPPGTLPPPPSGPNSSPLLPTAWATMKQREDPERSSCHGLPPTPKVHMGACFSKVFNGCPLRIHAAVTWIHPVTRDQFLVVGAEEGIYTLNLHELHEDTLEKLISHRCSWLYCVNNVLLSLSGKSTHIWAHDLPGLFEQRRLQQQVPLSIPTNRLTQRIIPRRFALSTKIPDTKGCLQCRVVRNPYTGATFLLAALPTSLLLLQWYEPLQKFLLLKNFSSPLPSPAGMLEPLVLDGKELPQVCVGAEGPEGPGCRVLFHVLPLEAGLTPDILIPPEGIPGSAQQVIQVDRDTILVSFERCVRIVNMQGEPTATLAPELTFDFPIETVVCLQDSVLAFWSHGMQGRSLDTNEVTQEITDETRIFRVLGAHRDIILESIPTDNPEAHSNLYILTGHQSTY
T15 sequence (Q8TD19 whole entry): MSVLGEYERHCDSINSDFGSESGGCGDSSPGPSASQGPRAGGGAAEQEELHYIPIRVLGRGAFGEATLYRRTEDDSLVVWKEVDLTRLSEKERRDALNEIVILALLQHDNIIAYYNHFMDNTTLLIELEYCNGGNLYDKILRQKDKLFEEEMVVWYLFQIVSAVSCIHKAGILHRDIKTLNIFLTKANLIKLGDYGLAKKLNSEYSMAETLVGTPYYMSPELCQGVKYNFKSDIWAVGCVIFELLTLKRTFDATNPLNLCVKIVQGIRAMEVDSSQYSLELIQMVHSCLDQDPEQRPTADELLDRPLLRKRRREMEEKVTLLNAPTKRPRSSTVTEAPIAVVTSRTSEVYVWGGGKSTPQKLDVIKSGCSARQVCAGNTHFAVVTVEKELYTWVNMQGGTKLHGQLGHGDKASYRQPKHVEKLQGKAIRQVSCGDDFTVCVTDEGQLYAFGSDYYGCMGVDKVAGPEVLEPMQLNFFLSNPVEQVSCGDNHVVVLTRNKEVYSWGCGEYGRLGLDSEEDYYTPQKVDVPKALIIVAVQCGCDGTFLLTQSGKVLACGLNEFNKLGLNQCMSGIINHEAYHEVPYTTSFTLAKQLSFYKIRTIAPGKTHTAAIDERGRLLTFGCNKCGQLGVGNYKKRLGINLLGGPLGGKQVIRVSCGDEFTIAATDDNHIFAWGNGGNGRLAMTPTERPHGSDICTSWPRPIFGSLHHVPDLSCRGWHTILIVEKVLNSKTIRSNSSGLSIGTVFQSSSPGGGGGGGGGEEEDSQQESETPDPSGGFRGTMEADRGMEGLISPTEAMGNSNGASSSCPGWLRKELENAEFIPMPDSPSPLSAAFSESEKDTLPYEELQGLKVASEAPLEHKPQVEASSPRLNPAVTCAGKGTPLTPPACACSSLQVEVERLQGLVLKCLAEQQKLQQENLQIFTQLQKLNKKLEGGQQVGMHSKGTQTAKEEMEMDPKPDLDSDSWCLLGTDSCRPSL

Consider `Cc1ncsc1-c1ccc([C@H](C)NC(=O)[C@@H]2C[C@@H](O)CN2C(=O)[C@@H](NC(=O)[C@H]2CC[C@H](C(=O)N3CCN(CCNC(=O)c4cc(Oc5ccc(NC(=O)Nc6cc(C(C)(C)C)on6)cc5)ccn4)CC3)CC2)C(C)(C)C)cc1` [MA191, 4-(4-(3-(5-(tert-Butyl)isoxazol-3-yl)ureido)phenoxy)-N-(2-(4-(trans-4-(((S)-1-((2S,4R)-4-hydroxy-2-(((S)-1-(4-(4-methylthiazol-5-yl)phenyl)ethyl)carbamoyl)pyrrolidin-1-yl)-3,3-dimethyl-1-oxobutan-2-yl)carbamoyl)cyclohexanecarbonyl)piperazin-1-yl)ethyl)picolinamide], for which the remaining activity at 1 µM turned out to be 116% in [1]; 116% in assay [3]; 110% in assay [5]; 107% in [7]; 54.8% in assay [10]; 108% in assay [11]. Further, the remaining activity at 1 µM worked out at 81.3% in [13], 117% in [14] and 109% in assay [15]. Moreover, the Tracer bound in assay [2] is 101.6%; in assay [4], 108.2%; in [6], 91.1%; in assay [8], 107.8%; in assay [9], 115.0%; in assay [12] it was 107.5%.
